≈ marks a conversion by molar mass, not a printed value.

A short description of data set [1]: Growth inhibition of human FRDA primary patient fibroblasts after 48 hrs by calcein-AM-based cell viability assay. The arrangement: species or system Fibroblast. The settings on record: for GI50 at 48 h: FRDA primary patient fibroblasts.
A short description of data set [2]: Half life in dog plasma at 25 mg/kg, po by HPLC analysis. The arrangement: dose 25 mg/kg, route oral. Format: ADME, organism-based, Canis lupus familiaris.
The target in data set [3] is Cytochrome P450 3A4 (Homo sapiens, UniProt P08684). Put plainly: Inhibition of […] at 10 uM. The data set is classed as ADME.
Chain of Cytochrome P450 3A4 (P08684 whole entry): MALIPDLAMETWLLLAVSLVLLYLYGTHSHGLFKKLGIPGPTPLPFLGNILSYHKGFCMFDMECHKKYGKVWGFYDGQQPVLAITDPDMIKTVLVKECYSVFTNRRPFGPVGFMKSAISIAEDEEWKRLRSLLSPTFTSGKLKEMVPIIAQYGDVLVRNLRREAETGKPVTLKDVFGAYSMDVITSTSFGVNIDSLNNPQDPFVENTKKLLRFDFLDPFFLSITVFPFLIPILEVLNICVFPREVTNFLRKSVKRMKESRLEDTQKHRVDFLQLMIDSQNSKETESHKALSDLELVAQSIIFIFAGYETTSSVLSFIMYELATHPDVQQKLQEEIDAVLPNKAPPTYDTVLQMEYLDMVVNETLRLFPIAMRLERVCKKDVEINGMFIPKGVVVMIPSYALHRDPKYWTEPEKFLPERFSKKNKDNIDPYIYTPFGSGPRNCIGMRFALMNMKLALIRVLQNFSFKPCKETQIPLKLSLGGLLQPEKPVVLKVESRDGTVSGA
Data set [4] has as its target Cytochrome P450 2C19 (Homo sapiens, UniProt P33261). Put plainly: Inhibition of CYP2C19 at 10 uM. Format: ADME.
The nature of data set [5]: Clearance in mouse plasma at 5 mg/kg, iv by HPLC analysis. The data set is classed as ADME, organism-based. More on the design: dose 5 mg/kg, route intravenous.
Data set [6] addresses T1, Cytochrome P450 1A2 (Homo sapiens, UniProt P05177).
T1 sequence (P05177 whole entry): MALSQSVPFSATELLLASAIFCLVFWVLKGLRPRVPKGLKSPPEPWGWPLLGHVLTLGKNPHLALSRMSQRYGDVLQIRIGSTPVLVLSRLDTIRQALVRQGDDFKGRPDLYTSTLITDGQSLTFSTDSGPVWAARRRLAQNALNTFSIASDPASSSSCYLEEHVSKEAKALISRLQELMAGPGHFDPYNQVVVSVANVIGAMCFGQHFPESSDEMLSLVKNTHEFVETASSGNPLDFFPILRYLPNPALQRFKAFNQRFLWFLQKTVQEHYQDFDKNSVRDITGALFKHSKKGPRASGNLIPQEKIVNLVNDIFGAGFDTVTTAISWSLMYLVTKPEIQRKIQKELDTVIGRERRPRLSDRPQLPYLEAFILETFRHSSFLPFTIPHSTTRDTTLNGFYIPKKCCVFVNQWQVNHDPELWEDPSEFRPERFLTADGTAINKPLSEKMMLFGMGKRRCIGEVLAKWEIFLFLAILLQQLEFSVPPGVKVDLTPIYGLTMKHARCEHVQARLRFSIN
Put plainly: Inhibition of CYP1A2 at 10 uM. Format: ADME.

The nature of data set [7]: Cmax in dog plasma at 25 mg/kg, po by HPLC analysis. The arrangement: dose 25 mg/kg, route oral. The data set is classed as ADME, organism-based, Canis lupus familiaris.
A short description of data set [8]: Volume of distribution in mouse plasma at 5 mg/kg, iv by HPLC analysis. The data set is classed as ADME, organism-based. The arrangement: dose 5 mg/kg, route intravenous.
The nature of data set [9]: Cmax in rat plasma at 100 mg/kg, po by HPLC analysis. The data set is classed as ADME, organism-based. More on the design: dose 100 mg/kg, route oral.
The nature of data set [10]: AUCt in dog plasma at 25 mg/kg, po by HPLC analysis. The arrangement: dose 25 mg/kg, route oral. Format: ADME, organism-based, Canis lupus familiaris.
In data set [11] the test system is Salmonella typhimurium. Put plainly: Mutagenic activity in Salmonella Typhimurium by Ames test. Format: toxicity, organism-based. The settings on record: salmonella enterica subsp. enterica serovar typhimurium. A general note: The Ames test detects mutagens through reverse mutation in bacteria.
A short description of data set [12]: Cmax in mouse plasma at 10 mg/kg, po by HPLC analysis. The data set is classed as ADME, organism-based. The arrangement: dose 10 mg/kg, route oral.
Data set [13] in a line: Tmax in mouse plasma at 10 mg/kg, po by HPLC analysis. The data set is classed as ADME, organism-based. The arrangement: dose 10 mg/kg, route oral.
Data set [14] in a line: Half life in rat plasma at 100 mg/kg, po by HPLC analysis. The data set is classed as ADME, organism-based. The arrangement: dose 100 mg/kg, route oral.
A short description of data set [15]: Half life in mouse plasma at 10 mg/kg, po by HPLC analysis. The data set is classed as ADME, organism-based. More on the design: dose 10 mg/kg, route oral.
For data set [16], the system named is CHO. Put plainly: Induction of micronucleation in CHO cells. Format: cell-based, Cricetulus griseus. The settings on record: chinese hamster.
In data set [17] the test system is Fibroblast. Put plainly: Ratio of idebenone EC50 to compound EC50 for cytoprotection against BSO-induced human FRDA primary patient fibroblasts. The data set is classed as functional.
Data set [18] can be described thus: AUCt in rat plasma at 100 mg/kg, po by HPLC analysis. Format: ADME, organism-based. The arrangement: dose 100 mg/kg, route oral.
A short description of data set [19]: AUCt in mouse plasma at 10 mg/kg, po by HPLC analysis. More on the design: dose 10 mg/kg, route oral. Format: ADME, organism-based.
The species named for data set [20] is Rattus norvegicus. Briefly: Prolongation of partial thromboplastin time in male Wistar rat. The data set is classed as ADME, organism-based. The conditions noted are these: in vivo.
Data set [21] is described as follows: Therapeutic index, ratio of LC50 to GI50 for human FRDA primary patient fibroblasts. The conditions noted are these: for selectivity ratio: FRDA primary patient fibroblasts, read-out: TI. Format: cell-based, Fibroblast.
Data set [22] relates to Rattus norvegicus. Put plainly: Toxicity in Wistar rat assessed as changes in water intake up to 2000 mg/kg, qd for 14 days. The data set is classed as organism-based. More on the design: dose 2000 mg/kg. The settings on record: in vivo, 336 h.
In data set [23] the target is Cytochrome P450 2D6 (Homo sapiens, UniProt P10635). Put plainly: Inhibition of CYP2D6 at 10 uM. Format: ADME.
Chain of Cytochrome P450 2D6 (P10635 whole entry): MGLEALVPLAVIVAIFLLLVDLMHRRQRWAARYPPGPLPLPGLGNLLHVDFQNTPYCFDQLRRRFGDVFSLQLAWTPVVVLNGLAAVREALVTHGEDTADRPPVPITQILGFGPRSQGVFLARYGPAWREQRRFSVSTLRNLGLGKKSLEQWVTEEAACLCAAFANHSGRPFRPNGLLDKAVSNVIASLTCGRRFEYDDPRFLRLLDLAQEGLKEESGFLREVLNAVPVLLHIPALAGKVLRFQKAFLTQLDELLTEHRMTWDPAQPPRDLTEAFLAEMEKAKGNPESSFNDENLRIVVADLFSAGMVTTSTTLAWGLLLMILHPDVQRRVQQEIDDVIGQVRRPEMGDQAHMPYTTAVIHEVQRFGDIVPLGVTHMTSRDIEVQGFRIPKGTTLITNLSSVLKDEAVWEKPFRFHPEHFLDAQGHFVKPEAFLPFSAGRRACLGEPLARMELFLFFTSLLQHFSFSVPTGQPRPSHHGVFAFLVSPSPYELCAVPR
For data set [24], the system named is Fibroblast. Put plainly: Ratio of CoQ10 EC50 to compound EC50 for cytoprotection against BSO-induced human FRDA primary patient fibroblasts. Format: functional.
In data set [25] the target is Cytochrome P450 2C9 (Homo sapiens, UniProt P11712). Briefly: Inhibition of CYP2C9 at 10 uM. The data set is classed as ADME.
Chain of Cytochrome P450 2C9 (P11712 whole entry): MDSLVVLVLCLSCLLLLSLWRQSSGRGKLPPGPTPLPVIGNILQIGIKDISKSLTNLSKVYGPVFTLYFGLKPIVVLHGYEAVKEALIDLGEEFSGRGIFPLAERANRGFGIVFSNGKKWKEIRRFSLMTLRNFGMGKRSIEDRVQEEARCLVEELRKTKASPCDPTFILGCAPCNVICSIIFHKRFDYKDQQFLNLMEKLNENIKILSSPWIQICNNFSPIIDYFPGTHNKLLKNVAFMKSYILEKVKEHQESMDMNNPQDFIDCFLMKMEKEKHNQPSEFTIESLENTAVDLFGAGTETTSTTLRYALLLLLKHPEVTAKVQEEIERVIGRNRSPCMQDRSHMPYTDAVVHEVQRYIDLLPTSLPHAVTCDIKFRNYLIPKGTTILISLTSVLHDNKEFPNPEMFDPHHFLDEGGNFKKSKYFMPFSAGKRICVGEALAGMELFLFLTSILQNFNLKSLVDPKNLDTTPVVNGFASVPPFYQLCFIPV
The nature of data set [26]: Solubility of the compound. The data set is classed as physicochemical.
Data set [27] is described as follows: Tmax in dog plasma at 25 mg/kg, po by HPLC analysis. Format: ADME, organism-based, Canis lupus familiaris. More on the design: dose 25 mg/kg, route oral.
A short description of data set [28]: AUC (0 to infinity) in mouse plasma at 10 mg/kg, po by HPLC analysis. The data set is classed as ADME, organism-based. More on the design: time infinity, dose 10 mg/kg, route oral.
Data set [29] is described as follows: Growth inhibition of human primary fibroblasts after 48 hrs by calcein-AM-based cell viability assay. The arrangement: species or system Fibroblast.
Data set [30] is described as follows: Oral bioavailability in mouse plasma at 10 mg/kg by HPLC analysis. Format: ADME, organism-based.
The subject of data set [31] is Rattus norvegicus. Put plainly: Toxicity in Wistar rat assessed as changes in body weight up to 2000 mg/kg, qd for 14 days. The conditions noted are these: in vivo, 336 h. The arrangement: dose 2000 mg/kg. Format: organism-based.
A short description of data set [32]: AUC (0 to infinity) in rat plasma at 100 mg/kg, po by HPLC analysis. Format: ADME, organism-based. More on the design: time infinity, dose 100 mg/kg, route oral.
Data set [33] can be described thus: AUCt in mouse plasma at 5 mg/kg, iv by HPLC analysis. The data set is classed as ADME, organism-based. More on the design: dose 5 mg/kg, route intravenous.
For data set [34], the species on record is Rattus norvegicus. Put plainly: Prolongation of partial thromboplastin time in female Wistar rat. The data set is classed as ADME, organism-based. The settings on record: in vivo.
Data set [35] can be described thus: AUC (0 to infinity) in dog plasma at 25 mg/kg, po by HPLC analysis. More on the design: time infinity, dose 25 mg/kg, route oral. Format: ADME, organism-based, Canis lupus familiaris.
In data set [36] the test system is Fibroblast. Briefly: Cytoprotective activity against BSO-induced human FRDA primary patient fibroblasts compound pretreated 12 hrs prior to BSO-induction measured after 48 hrs by calcein-AM-based cell viability assay. The data set is classed as functional.
Data set [37] relates to Rattus norvegicus. Put plainly: Toxicity in Wistar rat assessed as changes in food intake up to 2000 mg/kg, qd for 14 days. The arrangement: dose 2000 mg/kg. The settings on record: in vivo, 336 h. The data set is classed as organism-based.
Data set [38] has as its system Fibroblast. Briefly: Ratio of alpha-tocopherol EC50 to compound EC50 for cytoprotection against BSO-induced human FRDA primary patient fibroblasts. The data set is classed as functional.
Data set [39] can be described thus: AUC (0 to infinity) in mouse plasma at 5 mg/kg, iv by HPLC analysis. Format: ADME, organism-based. More on the design: time infinity, dose 5 mg/kg, route intravenous.
Data set [40] is described as follows: Tmax in rat plasma at 100 mg/kg, po by HPLC analysis. Format: ADME, organism-based. The arrangement: dose 100 mg/kg, route oral.
A short description of data set [41]: Half life in mouse plasma at 5 mg/kg, iv by HPLC analysis. The data set is classed as ADME, organism-based. The arrangement: dose 5 mg/kg, route intravenous.

Chain of Cytochrome P450 2C19 (P33261 whole entry): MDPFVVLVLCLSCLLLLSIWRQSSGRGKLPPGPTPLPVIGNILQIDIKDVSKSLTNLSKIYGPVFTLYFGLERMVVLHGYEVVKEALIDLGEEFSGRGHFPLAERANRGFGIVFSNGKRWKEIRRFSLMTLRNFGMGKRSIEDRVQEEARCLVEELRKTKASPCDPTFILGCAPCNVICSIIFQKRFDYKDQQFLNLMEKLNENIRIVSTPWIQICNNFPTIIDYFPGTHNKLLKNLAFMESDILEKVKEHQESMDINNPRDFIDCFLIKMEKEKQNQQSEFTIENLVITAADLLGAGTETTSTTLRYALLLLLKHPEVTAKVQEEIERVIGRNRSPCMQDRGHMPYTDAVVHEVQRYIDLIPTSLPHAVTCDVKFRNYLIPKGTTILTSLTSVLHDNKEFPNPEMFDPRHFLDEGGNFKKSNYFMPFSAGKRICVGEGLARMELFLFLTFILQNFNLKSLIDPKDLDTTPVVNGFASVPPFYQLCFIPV

As a reminder, the GI50 is the concentration giving 50% growth inhibition. For `COC1=C(OC)C(=O)C(C/C=C(\C)CC/C=C(\C)CC/C=C(\C)CC/C=C(\C)CC/C=C(\C)CC/C=C(\C)CC/C=C(\C)CC/C=C(\C)CC/C=C(\C)CCC=C(C)C)=C(C)C1=O` [UBIDECARENONE], in data set [1], the GI50 at 48 h was 220 µM.
One may read the half-life as the time needed for the level to fall by half in the phase considered. The clearance is the volume of plasma or blood freed of the substance per unit of time. Lower therefore signals a low capacity for elimination. Broadly, the Cmax is the highest concentration seen after dosing. What is called Vd is the apparent volume that relates the amount in the body to the concentration in plasma or blood. For orientation: AUC(0-t) means exposure summed from dosing to a finite time, without extrapolation to infinity. Read a high AUC(0-t) as more exposure. Broadly, the Tmax is the time from dosing to the highest level. By solubility is commonly meant the dissolved amount per volume that the medium holds. Lower therefore signals a poorly soluble substance. A word on the AUC(0-inf): it is total exposure, with the tail of the curve extrapolated. The low end stands for less exposure, the high end for more exposure. For orientation: bioavailability means dose-corrected exposure relative to a reference, in per cent. A high value points to much systemic uptake. The term EC50 denotes the concentration giving half of the maximal effect. Regarding `CC1=C(C)C(=O)C(CC[C@](C)(O)CCC[C@H](C)CCC[C@H](C)CCCC(C)C)=C(C)C1=O`, the half-life in [2] was 23.7 h; in data set [14] it was 16.6 h; in [15], 5.8 h; in data set [41], 16.2 h. For the same molecule, the “inhibition (INH)” value in data set [3], in [4], in data set [6], in data set [23] and in data set [25] was “Not Active” throughout. The molecule also showed a clearance in data set [5] of 20 mL/min/kg. Further, the figures for the Cmax in [7], in data set [9] and in [12] were 2370 ng/mL, 3010 ng/mL and 519 ng/mL, respectively. In addition, in data set [8], the Vd amounted to 27.6 L/kg. The AUC(0-t) in data set [10] stood at 14200 ng·h/mL; in [18], 26400 ng·h/mL; in data set [19], 1980 ng·h/mL; in data set [33] it was 3980 ng·h/mL. Moreover, the Activity entry in [11] is reported as “Non-toxic”; in [16] it was “Non-toxic”; in data set [20], “Dose-dependent effect”; in data set [22] it was “Non-toxic”; in [31] it was “Non-toxic”; in data set [34] it was “Dose-dependent effect”. The values for the Activity result in [36] and in data set [37] were “Dose-dependent effect” and “Non-toxic”, respectively. In addition, the Tmax is 1 h in [13], 2 h in data set [27] and 4 h in [40]. Moreover, the “Ratio EC50” value in data set [17] worked out at 35; in [24], 200; in data set [38], 7. Also, the selectivity ratio in data set [21] was at least 8330. Besides, the solubility in data set [26] is 10 µM (≈ 4.47 µg/mL). Further, the AUC(0-inf) in data set [28] amounted to 2070 ng·h/mL; in data set [32], 27900 ng·h/mL; in data set [35], 16800 ng·h/mL; in data set [39], 4240 ng·h/mL. Further, the GI50 at 48 h in data set [29] and in data set [1] was at least 300 µM each time. In data set [30], the bioavailability worked out at 24%. Moreover, the EC50 in data set [36] (Homo sapiens, Fibroblast) was 0.036 µM.
For `COC1=C(OC)C(=O)C(CCCCCCCCCCO)=C(C)C1=O` [IDEBENONE], the selectivity ratio in [21] was 165. In [36] (Homo sapiens, Fibroblast), the EC50 is 0.592 µM. Also, the GI50 at 48 h in data set [1] was 98 µM.
Regarding VITAMIN E, the TI entry in [21] (fibroblast) is on record as “>= 1282”. Besides, in data set [36] (fibroblast), the EC50 was 0.234 µM. The GI50 in data set [1] (fibroblast, 48 h) was at least 300 µM.
